Results reported in patent US10183915B2, “Axially chiral isomers, and preparation methods therefor and pharmaceutical uses thereof” (MEDSHINE DISCOVERY INC., priority 2015, dated 2019).
Where two headings read alike, the source gives them in different places.

Legend:
[1] = Stability of solid compounds in ambient temperature (15° C., nitrogen cabinet, dark; SFC chiral purity); assay type: physicochemical; settings: for Enantiomer Excess of the Compound: solid
Method: Test 2: Evaluation of the Stability of Solid Compounds in Ambient Temperature.
20 mg of test compound was placed into 5 mL brown transparent sealed container with stopper and stoned in the nitrogen cabinet (15° C.) in the dark. After the preset storage time, about 2 mg of test compound was accurately weighed, added into ethanol to prepare 1 mg/mL ethanol solution. The purity and chiral purity of the compound was detected by high performance liquid chromatography (HPLC) or LC-MS (LCMS) and supercritical fluid chromatography (SFC).

[2] = In vivo pharmacokinetic study in male Sprague-Dawley rats (IV and PO); parameters: species or system Sprague-Dawley rat; settings: for Bioavailability: PO 10 mpk vs IV 2 mpk; for MRT inf: read-out: MRT0-inf
Method: Test 6: In Vivo Pharmacokinetic Study of the Test Compounds in Rats
To study the pharmacokinetic behavior of the compounds in rats and to evaluate their pharmacokinetic characteristics, their concentrations in plasma were determined by LC/MS/MS.
Appropriate amount of sample was added to a certain amount of pure water, the pH were adjusted to 7-8, to prepare to be 1 mg/mL (filtered and clarified) and 2 mg/mL (with a few particles of suspension) for IV and PO administration. • 2.4 Administration • 18 male SD rats were randomly assigned to 6 treatment groups, 3 rats in each group. Male rats were administrated IV and PO respectively after fasting overnight. The IV dosage was 2 mg/kg, the dose volume was 2 mL/kg, the PO dosage was 10 mg/kg, and the dose volume was 5 mL/kg. 3. Experimental Procedure
For IV group, 250 μL blood samples were collected before administration, and 0.083, 0.25, 0.5, 1, 2, 4, 8, 24 hours after administration, and placed in K2-EDTA anticoagulant tube, centrifuged at 3000 rpm for 15 minutes, plasma was separated, stored at −80° C. For PO Group, blood samples were collected before administration, and 0.25, 0.5, 1, 2, 4, 8, 24 hours after administration, and the other operations were the same as group IV. The content of the test compounds in the plasma of rats after administration of IV and PO were determined by LC/MS/MS method. The linear range of the assay was 6.00-18000 nM, and the lower limit of quantification was 6 nM; the plasma samples were analyzed by pretreatment with precipitated proteins.

[3] = Stability of compounds in DMSO solutions (heated; SFC chiral purity); assay type: physicochemical; settings: for Enantiomer Excess of Compound: DMSO solution
Method: Example 4: Evaluation of the Stability of Compounds in DMSO Solutions
(§1) An appropriate amount of test compound was accurately weighed, added into DMSO to obtain a DMSO solution. The DMSO solution of the compound was stirred in a heated oil bath. At the end of the test, a sample amount of the DMSO solution was diluted with ethanol and the purity and chiral purity of the compound was detected by high performance liquid chromatography (HPLC) or LC-MS (LCMS) and supercritical fluid chromatography (SFC).

[4] = Stability of compounds in SD rat plasma; assay type: in vitro ADME
Method: (§2) Test 5: Evaluation of the Stability of Compounds in Rat Plasma and Human Plasma
(§3) 2. Experimental Procedures and Methods • 2.1 Prior to the experiment, the frozen plasma stored at −40° C. was thawed at room temperature and incubated in a 37° C. water bath for 5-10 min; centrifuged at 4000 rpm for 5 min, to remove impurities and lipids in the plasma. Measured the value of pH, if required, adjusted it to 7.4±0.1. • 2.2 Prepared 400 μM intermediate solution by diluting 4 μL of the working solution (10 mM) with 96 μL DMSO. • 2.3 Preparation of incubation samples: Remove 3 μL of intermediate solution (400 μM) to mix with 597 μL of blank plasma to achieve 2 μM of final concentration. Incubate each time point samples (0 min, 10 min, 30 min, 60 min, 120 min, in duplicate) at 37° C. in water bath. • 2.4 An aliquot of 100 μL samples of the final spiked plasma for each time point were removed to sample collected plates, added 400 μL of stop solution (200 ng/mL Tolbutamide plus 20 ng/mL Buspirone in 50% ACN/MeOH) to precipitate protein. Mixed thoroughly. • 2.5 Centrifuged each plate at 4,000 rpm for 20 min. Transfered an aliquot of supernatant (100 μL) from each well to sample plate and mixed with 200 μL ultra pure water. Shaked the plate at 800 rpm for about 10 min before submitting to LC-MS/MS analysis. 3. Experimental Data Analysis
(§4) The ratio of the peak area to the internal standard peak area was used to assess the decrease of the test compound to be measured. The % remaining of the test compound after incubation in plasma was calculated using following equation: % Remaining=100×(PAR at appointed incubation time/PAR at T0 time)
(§5) wherein PAR is the peak area ratio of analyte versus internal standard (IS)
(§6) The appointed incubation time points are: 0 min, 10 min, 30 min, 60 min, 120 min; T0: Samples prior to incubation.

[5] = Stability of compounds in ethanol solutions (heated; SFC chiral purity); assay type: physicochemical; settings: for Enantiomer Excess of Compound: ethanol solution
Excerpt: Test 3: Evaluation of the Stability of Compounds in Ethanol Solutions.
as §1, with “ethanol” for “DMSO”, “an ethanol” for “a DMSO”, “test,” for “test, a sample amount of the DMSO solution was diluted with ethanol and”

[6] = Stability of compounds in human plasma; assay type: in vitro ADME; settings: for Recovery (% remaining): human plasma
Method: as §2, §3, §4, §5, §6

[7] = male SD rats, IV 2 mpk, 2 mg/kg
[8] = male SD rats, PO 10 mpk, 10 mg/kg
[9] = male, Sprague-Dawley, rat, plasma, iv, 2 mg/kg, male SD rats, IV 2 mpk
[10] = male, Sprague-Dawley, rat, plasma, po, 10 mg/kg, male SD rats, PO 10 mpk

O=C(O)CSc1nnc(Br)n1-c1ccc(C2CC2)c2ccccc12 (single isomer, unassigned) [(−)-Lesinurad]
Enantiomer Excess of the Compound ([1]; storing time 0 day): 96.5% | Enantiomer Excess of the Compound ([1]; storing time >80 days): Unchanged | Stability of the solid powder (SFC purity) ([1]; storing over 80 days): very stable | Transformation of the atropisomer in vivo ([2]; SD rats, IV and PO): no transformation was observed | AUC0-inf [2, 7]: 14.419 ± 1.54695 µM·h | C0 [2, 7]: 9.39 ± 3.21 µM | Cl [2, 7]: 5.76 ± 0.59 mL/min/kg | MRT0-inf [2, 7]: 2.16 ± 0.07 h | T1/2 [2, 7]: 1.46 ± 0.03 h | Vdss [2, 7]: 0.75 ± 0.10 L/kg | Bioavailability ([2]; male SD rats): 65.11% | AUC0-inf [2, 8]: 46.94391 ± 11.4987 µM·h | Cmax [2, 8]: 11 ± 3.99 µM | MRT0-inf [2, 8]: 3.92 ± 0.64 h | T1/2 [2, 8]: 2.17 ± 0.10 h | Tmax [2, 8]: 2.33 ± 1.53 h | Enantiomer Excess of Compound ([3]; 80° C., 0 h): 96.5% | Enantiomer Excess of Compound ([3]; 80° C., 2 × 24 h): Unchanged | Enantiomer Excess of Compound ([3]; 80° C., 4 × 24 h): Unchanged | Enantiomer Excess of Compound ([3]; 80° C., 2 h): Unchanged | Enantiomer Excess of Compound ([3]; 80° C., 4 h): Unchanged | Enantiomer Excess of Compound ([3]; 80° C., 8 h): Unchanged | Enantiomer Excess of Compound ([3]; 80° C., 24 h): Unchanged | Enantiomer Excess of Compound ([3]; 120° C., 0 h): 96.5% | Enantiomer Excess of Compound ([3]; 120° C., 2 × 24 h): Unchanged | Enantiomer Excess of Compound ([3]; 120° C., 4 × 24 h): Unchanged | Enantiomer Excess of Compound ([3]; 120° C., 2 h): Unchanged | Enantiomer Excess of Compound ([3]; 120° C., 4 h): Unchanged | Enantiomer Excess of Compound ([3]; 120° C., 8 h): Unchanged | Enantiomer Excess of Compound ([3]; 120° C., 24 h): Unchanged | Enantiomer Excess of Compound ([3]; 160° C., 0 h): 96.5% | Enantiomer Excess of Compound ([3]; 160° C., 8 h): Unchanged | Stability in DMSO solutions (SFC purity) ([3]; heating to 80° C., 120° C. and up to 160° C.): very stable | Stability after co-incubation with SD-rat plasma ([4]; 2 hours): very stable | recovery at 0 min, 2 μM ([4]; SD, rat, plasma, pH 7.4, SD rat plasma, 2 μM, 37° C., 0 min, read-out: Recovery (% remaining)): 100% | recovery at 10 min, 2 μM ([4]; SD, rat, plasma, pH 7.4, SD rat plasma, 2 μM, 37° C., 10 min, read-out: Recovery (% remaining)): 102% | recovery at 30 min, 2 μM ([4]; SD, rat, plasma, pH 7.4, SD rat plasma, 2 μM, 37° C., 30 min, read-out: Recovery (% remaining)): 99.9% | recovery at 60 min, 2 μM ([4]; SD, rat, plasma, pH 7.4, SD rat plasma, 2 μM, 37° C., 60 min, read-out: Recovery (% remaining)): 97.9% | recovery at 120 min, 2 μM ([4]; SD, rat, plasma, pH 7.4, SD rat plasma, 2 μM, 37° C., 120 min, read-out: Recovery (% remaining)): 100% | Enantiomer Excess of Compound ([5]; 37° C., 4 days): Unchanged | Enantiomer Excess of Compound ([5]; 37° C., 7 days): Unchanged | Enantiomer Excess of Compound ([5]; heating time 0 day): 96.5% | Stability in ethanol solutions (SFC purity) ([5]; heating to 37° C. and up to 70° C.): very stable | Stability after co-incubation with human plasma ([6]; 2 hours): very stable | Recovery (% remaining) ([6]; 2 μM, 37° C., 30 min): 100.4% | Recovery (% remaining) ([6]; 2 μM, 37° C., 60 min): 99.6% | recovery at 120 min, 2 μM ([6]; human, plasma, pH 7.4, human plasma, 2 μM, 37° C., 120 min, read-out: Recovery (% remaining)): 101%

O=C(O)CSc1nnc(Br)n1-c1ccc(C2CC2)c2ccccc12 (racemic) [(±)-Lesinurad, Lesinurad, reference compound]
clearance ([2]; Sprague-Dawley, rat, plasma, 2 mg/kg, male SD rats, IV 2 mpk): 5.72 ± 1.09 mL/min/kg | AUC0-inf ([2]; Sprague-Dawley, rat, plasma, 2 mg/kg, male SD rats, IV 2 mpk, read-out: AUC0-inf): 14.8 ± 3.15 µM·h | AUC0-inf ([2]; Sprague-Dawley, rat, plasma, 10 mg/kg, male SD rats, PO 10 mpk, read-out: AUC0-inf): 62.5 ± 12.1 µM·h | C0 [2, 9]: 11.6 ± 1.98 µM | half-life [2, 9]: 1.8 ± 0.65 h | MRT inf [2, 9]: 2.21 ± 0.63 h | Vd ([2]; male, Sprague-Dawley, rat, plasma, iv, 2 mg/kg, male SD rats, IV 2 mpk, read-out: Vdss): 0.76 ± 0.29 L/kg | Cmax [2, 10]: 14.5 ± 8.47 µM | half-life [2, 10]: 2.46 ± 0.18 h | Bioavailability ([2]; male, Sprague-Dawley, rat, plasma, po, 10 mg/kg, male SD rats, read-out: Bioavailability): 84.3% | MRT inf [2, 10]: 4.63 ± 1.16 h | Tmax ([2]; male, Sprague-Dawley, rat, plasma, po, 10 mg/kg, male SD rats, PO 10 mpk, read-out: Tmax): 2.33 ± 1.53 h
